Measurements: US10793549B2, “Sulfuryl-substituted benzoheterocyclic derivative, preparation method and medical use thereof” (SHANGHAI HAIYAN PHARMACEUTICAL TECHNOLOGY CO., LTD., priority 2016, dated 2020)

Key:
EZH2 Y641F = EZH2 Y641F (Homo sapiens (Human), UniProt Q15910, Y641F); test: In vitro methyltransferase activity test (LANCE Ultra); assay type: biochemical; conditions: Recombinant PRC2 (EZH2-Y641F), 2.5 μM SAM/250 nM H3(1-50)K27me1, 3 hours, room temperature
Protocol: The detection system uses LANCEUltra system (Perkinelmer company). […] And then a buffer [20 mM Tris pH8.5, 2 mM MgCl2, 0.01% Tween-20, 1 mM TCEP] containing 2.5 μM SAM/250 nM H3 (1-50)K27me1 premixtures was added, thus the enzyme reaction was started at room temperature. After reacting for 3 hours, a test solution premixed with PLL, detection antibody and Ulight was added, and reacted for 1h at room temperature, then the fluorescence value was read on a Tecan infinite pro. IC50 was calculated by fitting a four-factor model in the XLfit software.

Pfeiffer cells = test: Cell proliferation test (Cell counting kit-8, 6 days); assay type: cell-based; conditions: Pfeiffer (CRL-2632) cells, culture for 6 days, viable cells by Cell counting kit-8
Protocol: The used cell lines Pfeiffer (CRL-2632), suDHL-6 (CRL-2959) and suDHL-10 (CRL-2963) were purchased from American Type Culture Collection (ATCC). All cell lines were cultured in RPMI-1640 medium (Gibco) containing 10% fetal bovine serum (Gibco). The cultured cells were collected by centrifugation and the cell density was measured on a CounterStar counter. Appropriate number of cells were then seeded in a 96-well culture plate and incubated overnight. Compounds to be tested were diluted by 8 gradient points in a ratio of 1:3 and added into the corresponding wells. After continuing to culture for 6 days, the number of viable cells was measured with Cell counting kit-8, and the absorbance value was read on Tecan infinite pro. The IC50 was calculated by fitting a four-parameter model in the XLfit software.

Chain of EZH2 Y641F (Q15910 whole entry Y641F): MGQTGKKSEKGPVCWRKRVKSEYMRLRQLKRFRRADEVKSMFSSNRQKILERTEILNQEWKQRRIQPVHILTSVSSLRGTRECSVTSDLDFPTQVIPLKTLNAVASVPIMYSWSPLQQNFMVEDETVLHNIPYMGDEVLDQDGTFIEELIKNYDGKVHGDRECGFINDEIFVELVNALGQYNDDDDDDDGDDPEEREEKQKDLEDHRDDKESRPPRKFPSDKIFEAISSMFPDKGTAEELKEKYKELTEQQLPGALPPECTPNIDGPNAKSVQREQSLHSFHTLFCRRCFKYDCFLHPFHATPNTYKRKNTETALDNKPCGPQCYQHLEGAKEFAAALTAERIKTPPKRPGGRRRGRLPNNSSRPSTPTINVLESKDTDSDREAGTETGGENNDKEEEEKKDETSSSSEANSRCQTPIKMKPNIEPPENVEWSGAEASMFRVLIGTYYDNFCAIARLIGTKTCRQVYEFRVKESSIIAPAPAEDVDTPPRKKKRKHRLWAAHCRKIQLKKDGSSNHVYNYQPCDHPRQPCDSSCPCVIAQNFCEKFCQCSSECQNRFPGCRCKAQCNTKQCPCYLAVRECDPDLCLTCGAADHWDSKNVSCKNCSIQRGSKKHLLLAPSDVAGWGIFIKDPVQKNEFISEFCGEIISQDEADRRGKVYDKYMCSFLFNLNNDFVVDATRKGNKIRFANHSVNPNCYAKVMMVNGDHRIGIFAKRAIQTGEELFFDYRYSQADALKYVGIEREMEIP
Chain of EZH2 Y641F (O75530 whole entry partner): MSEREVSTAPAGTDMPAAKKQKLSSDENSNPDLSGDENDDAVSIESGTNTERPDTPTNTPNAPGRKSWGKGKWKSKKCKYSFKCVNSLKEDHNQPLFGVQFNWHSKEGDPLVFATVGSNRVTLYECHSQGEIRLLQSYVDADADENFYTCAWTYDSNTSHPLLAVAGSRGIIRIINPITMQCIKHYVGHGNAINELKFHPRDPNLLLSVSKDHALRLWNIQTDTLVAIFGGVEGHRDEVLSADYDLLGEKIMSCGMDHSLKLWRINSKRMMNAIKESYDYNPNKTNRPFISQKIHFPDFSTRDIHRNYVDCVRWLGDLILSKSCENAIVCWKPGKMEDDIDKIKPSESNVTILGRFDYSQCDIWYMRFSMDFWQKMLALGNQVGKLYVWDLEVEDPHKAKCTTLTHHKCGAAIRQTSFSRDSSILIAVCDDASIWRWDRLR
Chain of EZH2 Y641F (Q15022 whole entry partner): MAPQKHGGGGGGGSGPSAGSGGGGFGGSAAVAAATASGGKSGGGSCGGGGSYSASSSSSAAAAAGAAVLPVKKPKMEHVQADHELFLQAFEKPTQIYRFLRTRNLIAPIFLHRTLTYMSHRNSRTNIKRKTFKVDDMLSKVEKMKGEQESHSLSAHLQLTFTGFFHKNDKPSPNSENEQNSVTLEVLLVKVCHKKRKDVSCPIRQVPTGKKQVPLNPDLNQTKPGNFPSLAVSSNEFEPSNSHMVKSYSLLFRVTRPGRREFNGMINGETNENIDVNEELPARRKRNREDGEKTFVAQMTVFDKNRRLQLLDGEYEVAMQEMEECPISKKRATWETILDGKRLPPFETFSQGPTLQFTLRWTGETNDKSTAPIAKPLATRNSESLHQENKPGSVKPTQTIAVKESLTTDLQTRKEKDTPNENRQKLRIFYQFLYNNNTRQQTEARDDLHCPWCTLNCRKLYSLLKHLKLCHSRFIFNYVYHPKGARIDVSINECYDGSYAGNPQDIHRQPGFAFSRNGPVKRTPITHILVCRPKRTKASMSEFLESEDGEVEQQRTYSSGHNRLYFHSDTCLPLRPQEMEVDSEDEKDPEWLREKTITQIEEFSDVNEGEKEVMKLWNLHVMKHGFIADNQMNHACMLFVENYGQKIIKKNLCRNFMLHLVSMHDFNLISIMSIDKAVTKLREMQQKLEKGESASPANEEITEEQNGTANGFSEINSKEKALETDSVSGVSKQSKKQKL
Chain of EZH2 Y641F (Q09028 whole entry partner): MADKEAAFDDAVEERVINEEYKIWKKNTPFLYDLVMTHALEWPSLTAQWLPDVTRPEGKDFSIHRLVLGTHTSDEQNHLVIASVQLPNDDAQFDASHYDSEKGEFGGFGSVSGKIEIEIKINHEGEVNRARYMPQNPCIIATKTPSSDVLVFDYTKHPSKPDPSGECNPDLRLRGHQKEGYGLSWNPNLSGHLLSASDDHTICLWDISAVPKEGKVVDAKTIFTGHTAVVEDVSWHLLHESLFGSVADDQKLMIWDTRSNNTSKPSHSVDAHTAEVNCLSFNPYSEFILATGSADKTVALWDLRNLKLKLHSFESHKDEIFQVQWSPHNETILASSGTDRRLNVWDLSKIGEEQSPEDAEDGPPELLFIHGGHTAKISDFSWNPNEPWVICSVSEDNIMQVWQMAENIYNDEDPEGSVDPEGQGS
Chain of EZH2 Y641F (Q6ZN18 whole entry partner): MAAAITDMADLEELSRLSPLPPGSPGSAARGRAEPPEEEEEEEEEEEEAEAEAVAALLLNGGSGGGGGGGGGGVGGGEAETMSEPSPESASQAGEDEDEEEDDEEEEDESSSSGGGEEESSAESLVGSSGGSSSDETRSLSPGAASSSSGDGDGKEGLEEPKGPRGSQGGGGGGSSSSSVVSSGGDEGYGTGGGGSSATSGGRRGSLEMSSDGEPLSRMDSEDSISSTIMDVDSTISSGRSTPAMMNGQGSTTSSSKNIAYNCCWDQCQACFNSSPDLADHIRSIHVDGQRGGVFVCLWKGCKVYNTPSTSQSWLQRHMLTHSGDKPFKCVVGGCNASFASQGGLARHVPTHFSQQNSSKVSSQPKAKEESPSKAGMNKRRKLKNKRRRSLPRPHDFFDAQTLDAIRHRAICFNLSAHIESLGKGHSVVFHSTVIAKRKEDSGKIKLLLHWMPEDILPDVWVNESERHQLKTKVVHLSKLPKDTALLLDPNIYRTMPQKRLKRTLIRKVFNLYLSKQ

Structure (SMILES)	IC50 (EZH2 Y641F) [nM]	IC50 (Pfeiffer cells) [nM]	IC50 (Pfeiffer cells; Homo sapiens, 144 h) [nM]
C=CCC1(S(=O)(=O)n2cc(C)c3c(C(=O)NCc4c(OC)cc(C)[nH]c4=O)cc(-c4cnc(N5CC(F)C5)nc4)cc32)CC1 [Compound G-30]	9	97	–
C=CCC1(S(=O)(=O)n2nc(C(F)F)c3c(C(=O)NCc4c(C)cc(C)[nH]c4=O)cc(-c4ccc(N5CCN(C)CC5)nc4)cc32)CC1 [Compound G-78]	1420	2520	–
C=CCC1(S(=O)(=O)n2cc(C)c3c(C(=O)NCc4c(C)cc(C)[nH]c4=O)cc(-c4ccc(OCCCN(C)C)cc4)cc32)CC1 [Compound G-11]	32	–	–
C=CCC1(S(=O)(=O)n2cc(C)c3c(C(=O)NCc4c(C)cc(C)[nH]c4=O)cc(-c4ccc(OCCN(C)C)cc4)cc32)CC1 [Compound G-5]	17	429	–
C=CCC1(S(=O)(=O)n2cc(C)c3c(C(=O)NCc4c(C)cc(C)[nH]c4=O)cc(-c4ccc(N5CCN(C(C)C)CC5)nc4)cc32)CC1 [Compound G-48, 1-(1-allylcyclopropylsulfonyl)-N-((4,6-dimethyl-2-oxo-1,2-dihydropyridin-3-yl)methyl)-6-(6-(4-isopropylpiperazin-1-yl)pyridin-3-yl)-3-methyl-1H-indole-4-carboxamide]	28	–	211
C=CCC1(S(=O)(=O)N2CCc3c(C(=O)NCc4c(C)cc(C)[nH]c4=O)cc(-c4ccc(N5CCN(C)CC5)nc4)cc32)CC1 [Compound G-76]	460	2590	–
C=CCC1(S(=O)(=O)n2cc(C)c3c(C(=O)NCc4c(C)cc(C)[nH]c4=O)cc(-c4ccc(CN(C)C)c(F)c4)cc32)CC1 [Compound G-16]	23	335	–
C=CCC1(S(=O)(=O)n2cc(C)c3c(C(=O)NCc4c(C)cc(C)[nH]c4=O)cc(-c4ccc(CN(C)C)cc4)cc32)CC1 [Compound G-4]	22	–	–
C=CCC1(S(=O)(=O)n2cc(C)c3c(C(=O)NCc4c(OC)cc(C)[nH]c4=O)cc(-c4ccc(N)nc4)cc32)CC1 [Compound G-36]	16	85	–
C=CCC1(S(=O)(=O)n2cc(C)c3c(C(=O)NCc4c(C)cc(C)[nH]c4=O)cc(-c4ccc(N(C)C)nc4)cc32)CC1 [Compound G-8]	40	327	–
Cc1cc(C)c(CNC(=O)c2cc(-c3ccc(N4CCN(C)CC4)nc3)cc3c2CCN3S(=O)(=O)C(C)C)c(=O)[nH]1 [Compound G-47, N-((4,6-dimethyl-2-oxo-1,2-dihydropyridin-3-yl)methyl)-1-(isopropylsulfonyl)-6-(6-(4-methylpiperazin-1-yl)pyridin-3-yl)dihydroindole-4-carboxamide]	160	2040	–
C=CCC1(S(=O)(=O)n2cc(C)c3c(C(=O)NCc4c(C)cc(C)[nH]c4=O)cc(-c4ccc(F)c(CN(C)C)c4)cc32)CC1 [Compound G-21]	37	–	–
C=CCC1(S(=O)(=O)n2nc(C)c3c(C(=O)NCc4c(C)cc(C)[nH]c4=O)cc(-c4ccc(N5CCN(C)CC5)nc4)cc32)CC1 [Compound G-79]	585	2820	–
C=CCC1(S(=O)(=O)n2cc(C)c3c(C(=O)NCc4c(C)cc(C)[nH]c4=O)cc(-c4ccc(CN(C)C)cc4F)cc32)CC1 [Compound G-18]	42	368	–
C=CCC1(S(=O)(=O)N2CC(C)c3c(C(=O)NCc4c(C)cc(C)[nH]c4=O)cc(-c4ccc(CN(C)C)cc4)cc32)CC1 (centres unmarked) [Compound G-75]	280	1840	–
C=CCC1(S(=O)(=O)n2cc(C)c3c(C(=O)NCc4c(C)cc(C)[nH]c4=O)cc(-c4ccc(N5CCOCC5)nc4)cc32)CC1 [Compound G-12]	58	485	–

Structure (SMILES)	IC50 (EZH2 Y641F) [nM]	IC50 (Pfeiffer cells) [nM]	IC50 (Pfeiffer cells; Homo sapiens, 144 h) [nM]
C=CCC1(S(=O)(=O)n2cc(C)c3c(C(=O)NCc4c(C)cc(C)[nH]c4=O)cc(-c4ccc(CN(C)C)cc4F)cc32)CC1 [Compound G-15]	25	219	–
C=CCC1(S(=O)(=O)n2cc(C)c3c(C(=O)NCc4c(C)cc(C)[nH]c4=O)cc(-c4cccnc4)cc32)CC1 [Compound G-7]	33	380	–
C=CCC1(S(=O)(=O)n2cc(C)c3c(C(=O)NCc4c(C)cc(C)[nH]c4=O)cc(-c4cnc(N5CC(F)C5)nc4)cc32)CC1 [Compound G-24]	32	60	–
C#CCCS(=O)(=O)n1cc(C)c2c(C(=O)NCc3c(OC)cc(C)[nH]c3=O)cc(-c3ccc(N4CCN(C)CC4)nc3)cc21 [Compound G-81]	196	3800	–
C=CCC1(S(=O)(=O)n2cc(C)c3c(C(=O)NCc4c(OC)cc(C)[nH]c4=O)cc(-c4ccc(CN(C)C)cc4)cc32)CC1 [Compound G-32]	8	79	–
C=CCC1(S(=O)(=O)n2cc(C)c3c(C(=O)NCc4c(C)cc(C)[nH]c4=O)cc(-c4ccc(N)nc4)cc32)CC1 [Compound G-9]	35	450	–
C=CCC1(S(=O)(=O)n2cc(C)c3c(C(=O)NCc4c(C)cc(C)[nH]c4=O)cc(-c4cnc(N5CCNCC5)nc4)cc32)CC1 [Compound G-65]	17	171	–
C=CCC1(S(=O)(=O)n2cc(C)c3c(C(=O)NCc4c(C)cc(C)[nH]c4=O)cc(-c4ccc(CCN5CCOCC5)nc4)cc32)CC1 [Compound G-3]	28	300	–
C=CCC1(S(=O)(=O)n2cc(C)c3c(C(=O)NCc4c(C)cc(C)[nH]c4=O)cc(-c4ccc(CN(C)C)cc4)cc32)CC1 [Compound G-6]	19	352	–
C=CCC1(S(=O)(=O)n2cc(C)c3c(C(=O)NCc4c(C)cc(C)[nH]c4=O)cc(-c4ccc(C#N)nc4)cc32)CC1 [Compound G-10]	41	–	–
C=CCC1(S(=O)(=O)n2cc(C)c3c(C(=O)NCc4c(OC)cc(C)[nH]c4=O)cc(-c4cnc(N5CCN(C(C)C)CC5)nc4)cc32)CC1 [Compound G-67]	7	–	22
C=CCC1(S(=O)(=O)n2cc(C)c3c(C(=O)NCc4c(C)cc(C)[nH]c4=O)cc(-c4cnc(N5CCN(C)CC5)nc4)cc32)CC1 [Compound G-13]	13	75	–
C=CCC1(S(=O)(=O)n2cc(C)c3c(C(=O)NCc4c(OC(F)F)cc(C)[nH]c4=O)cc(-c4ccc(N5CCN(C)CC5)nc4)cc32)CC1 [Compound G-68]	34	152	–
C=CCC1(S(=O)(=O)n2cc(OC)c3c(C(=O)NCc4c(C)cc(C)[nH]c4=O)cc(-c4ccc(N5CCN(C)CC5)nc4)cc32)CC1 [Compound G-14]	5	27	–
C=CCC1(S(=O)(=O)N2CC(C)c3c(C(=O)NCc4c(C)cc(C)[nH]c4=O)cc(-c4ccc(N5CCN(C)CC5)nc4)cc32)CC1 (centres unmarked) [Compound G-77]	147	1530	–
C=CCC1(S(=O)(=O)n2cc(C)c3c(C(=O)NCc4c(OC)cc(C)[nH]c4=O)cc(N4CCN(C)CC4)cc32)CC1 [Compound G-69]	26	–	–
